Results from patent US6689813B2 (Biostatin Gyogyszerkutato-Fejleszto kft., priority 1998, dated 2004).
Where no end group is shown, it is not given here. [ ]: non-standard residue; d: D form. βAsp(indolinyl) = β-Asp(indolinyl) N-terminal residue

Key:
[1] = test system: Wistar rats; assay: 0.5% dextran-induced non-neurogenic inflammation (foot swelling, plethysmometer) after chronic denervation; assay type: in vivo, rat
Protocol: This test is based on the fact that a non-neurogenic, so-called clearly chemical inflammation can be induced by chemical excitation (e.g. by dextran, carrageenin, formalin) on a chronically denervated body area at least 5 days following the transsection of the nerve. These chemical agents release inflammation-inducing substances (histamine, bradykinin, PAF, prostaglandins and leucotrienes) from immunocytes, chiefly from mast cells.
Dextran solution (0.1 ml, 0.5%) is administered into both feet, underneath the plantar skin of Wistar rats (5 to 7 animals in each group) anaesthetized by nembutal (40 mg/kg i.v.) 5 days after bilateral denervation (transsection of the saphenous and sciatic nerves) of the lower limbs. The pretreated animals received somatostatin (SS), ocreotide or TT-232 (10 μg/kg i.p.) 10 minutes earlier. Before the administration of dextran (0 minute value), then after 10, 20 and 30 minutes, respectively, the swelling of the feet was measured by using a plethysmometer (Ugo Basil). Dextran elicits the so-called clearly chemical inflammation in the feet deprived of nerve supply (innervation) through the transmitters released from the mast cells.
A dose/effect ratio was determined for each substance.

[2] = test system: Wistar rats; assay: 1% mustard oil-induced neurogenic inflammation (Evans blue plasma extravasation, foot skin); assay type: in vivo, rat; conditions: for Decrease % (Evans blue extravasation vs control) / Evans blue extravasation: 20 μg/kg i.p.; for Decrease % (Evans blue extravasation vs control): 1% mustard oil; for Evans blue extravasation: 1% mustard oil on feet, control 169.525; for inhibition of mustard oil-induced neurogenic inflammation (in words): 20 μg/kg, 20 minutes after i.p. administration
Protocol: Thirty minutes after acute bilateral denervation of the lower limbs (transsection of the saphenous and sciatic nerves), 50 mg/kg of Evans blue dye was administered to the tail vein of nembutal-anaesthetized (pentobarbital, 40 mg/kg i.p.) Wistar rats (150-220 g body weight; 5 to 7 animals in each group). […] The mustard oil induces a so-called neurogenic inflammation by the selective stimulation of the peripheral endings of CSPAN's and by releasing the mediators being present therein (chiefly tachykinins and CGRP); this neurogenic inflammation appears as a vasodilatation in the area of arterioles and in the form of a plasma extravasation at the venular side. Since the dye Evans blue is bound to serum albumin in the vascular bed, its precipitation and accumulation in the upper skin surface of foot are proportional to the extent of plasma extravasation. Thus, the quantitative determination of intensity of the inflammation becomes possible. After the painting with mustard oil, the animals were bled, the foot dorsum skins were cut out and their weights were determined. The amount of dye extracted during 72 hours of incubation in formamide was determined at 620 nm on a spectrophotometer (Spectromon 195). The amount (expressed as μg) of the extravasated Evans blue related to one g of wet tissue was calculated by means of the following formula:
Evans blue (μg/g)=E×V×k/m
E is the light absorption of the solution, V means the volume (ml) of the solution, m is the weight […] of the skin cut out from the foot dorsum skin; and k is a constant determined on the basis of a dilution series, which is characteristic of the dye solution.

[3] = test system: Wistar rats; assay: Analgetic action: vegetative (pseudoaffective) reflex responses to mustard oil and capsaicin under urethane anaesthesia; assay type: in vivo, rat; design: Increase in heart rate: unit not given here; conditions: 10 μg/kg i.p.
Excerpt: This test is based on the synchronous registration of several components of so-called pseudoaffective reflex responses, which can be induced on animals by pain-producing stimuli [Lim, R. K. S.: J. Comp. Neurol 118, 269-294 (1962)] under urethane anaesthesia.
A significant blood pressure increase of 45 mmHg as an average pressor response, heart rate increase of 85 (as an average) and hyperpnoea (the number of respirations increases by 61 per minute as an average) can be observed in control animals on the effect of strong chemonociceptive stimuli (painting of the lower limbs with 1% mustard oil or dropping a capsaicin solution of 100 μg/ml concentration into the eye) under urethane anaesthesia.
The blood pressure, heart rate and respiration of intact Wistar rats (5 to 7 animals in each group, with a body weight of 250 to 350 g) were continuously registered for 40 minutes through an arterial cannula as well as double ramifying trachea cannula. Ten minutes before beginning the measurement, the pretreated animals received intraperitoneally 10 μg/kg of somatostatin (SS), octreotide or TT-232, respectively. Both lower limbs of the animals were painted with mustard oil in the 3rd minute and capsaicin solution was dropped into their eyes in the 23rd minute. The vegetative responses given on these nociceptive stimuli were evaluated by using a specific computer program.

[4] = test system: neurogenic inflammation; conditions: sodium salicylate 250 mg/kg i.v.; amidopyridine 200 mg/kg p.o.; phenylbutazone 100 mg/kg i.v.; flufenamic acid 20 mg/kg i.v.; indomethacin 10 mg/kg p.o.; cited from earlier work
[5] = Table 2.a, 10 mg/kg, 10 minutes
[6] = Table 2.a, 10 mg/kg, 30 minutes

O=C(O)Cc1ccccc1Nc1c(Cl)cccc1Cl [Diclofenac, reference compound]
foot swelling % ([1]; Table 2.a, 5 mg/kg, 20 minutes): 48.73 ± 4.84% | foot swelling % ([1]; Table 2.a, 5 mg/kg, 30 minutes): 53.07 ± 3.95% | foot swelling % [1, 5]: 24.35 ± 3.31% | foot swelling % [1, 6]: 42.61 ± 3.55% | foot swelling % ([1]; Table 2.a, 20 mg/kg, 10 minutes): 21.87 ± 2.84% | foot swelling % ([1]; Table 2.a, 30 mg/kg, 10 minutes): 26.02 ± 1.79% | foot swelling % ([1]; Table 2.a, 30 mg/kg, 30 minutes): 40.20 ± 1.73%

O=C(NN=Cc1ccc(O)c(O)c1)C(=O)Nc1cccc([N+](=O)[O-])c1 [HDL 2722, 3′-nitrophenylamino-2-oxoacetyl-3″,4″-dihydroxyphenyl-hydra-zone]
inhibition of 1% mustard oil-induced neurogenic inflammation (plasma extravasation) ([2]; 50 μg): 62%

Cc1cnc(NC(=O)C2=C(O)c3ccccc3S(=O)(=O)N2C)s1 [Meloxicam, reference compound]
foot swelling % ([1]; Table 2.a, 0.2 mg/kg, 10 minutes): 27.60 ± 3.56% | foot swelling % ([1]; Table 2.a, 0.2 mg/kg, 20 minutes): 39.99 ± 3.65% | foot swelling % ([1]; Table 2.a, 0.2 mg/kg, 30 minutes): 45.81 ± 2.9% | foot swelling % ([1]; Table 2.a, 0.5 mg/kg, 10 minutes): 27.24 ± 3.56% | foot swelling % ([1]; Table 2.a, 0.5 mg/kg, 20 minutes): 38.86 ± 2.86% | foot swelling % ([1]; Table 2.a, 0.5 mg/kg, 30 minutes): 44.92 ± 2.99% | foot swelling % ([1]; Table 2.a, 1 mg/kg, 10 minutes): 24.34 ± 2.57% | foot swelling % ([1]; Table 2.a, 1 mg/kg, 20 minutes): 36.46 ± 3.44% | foot swelling % ([1]; Table 2.a, 1 mg/kg, 30 minutes): 46.63 ± 3.2% | foot swelling % [1, 5]: 20.39 ± 2.26% | foot swelling % ([1]; Table 2.a, 10 mg/kg, 20 minutes): 33.36 ± 1.85% | foot swelling % [1, 6]: 39.34 ± 3.75%

C[C@@H](O)[C@@H]1NC(=O)[C@H](CCCCN)NC(=O)[C@@H](Cc2c[nH]c3ccccc23)NC(=O)[C@H](Cc2ccccc2)NC(=O)[C@@H](NC(=O)[C@H](N)Cc2ccccc2)CSSC[C@@H](C(=O)N[C@H](CO)[C@@H](C)O)NC1=O [Octreotide, reference compound]
Decrease % (Evans blue extravasation vs control) [2]: 3.952% | Evans blue extravasation [2]: 162.826 µg/g | inhibition of mustard oil-induced neurogenic inflammation (in words) [2]: inactive | protection against pseudoaffective reflex triad elicited by mustard oil and capsaicin (in words) ([3]; 10 minutes before mustard oil): completely inactive | Increase in respiration rate ([3]; after dropping capsaicin solution into the eye, control 47.5): 42 per minute | Increase in mean arterial pressure ([3]; after dropping capsaicin solution into the eye, control 55): 47.13 mmHg | Increase in heart rate ([3]; after dropping capsaicin solution into the eye, control 143): 127 | Increase in mean arterial pressure ([3]; after painting the feet by mustard oil, control 45.4): 43.2 mmHg | Increase in respiration rate ([3]; after painting the feet by mustard oil, control 60.75): 45 per minute | Increase in heart rate ([3]; after painting the feet by mustard oil, control 84.8): 81.2 | prevention of dextran-induced non-neurogenic inflammation (in words) ([1]; 10 μg/kg, even 40 minutes following the pretreatment): completely inactive | foot swelling % ([1]; Table 2, 10 μg/kg i.p. 10 min before dextran, 10 minutes, control 32.97): 31.36% | foot swelling % ([1]; Table 2, 10 μg/kg i.p. 10 min before dextran, 20 minutes, control 49.695): 47.7% | foot swelling % ([1]; Table 2, 10 μg/kg i.p. 10 min before dextran, 30 minutes, control 56.68): 54.8%

Cc1c(N(C)C)c(=O)n(-c2ccccc2)n1C [amidopyridine]
significant inhibitory effect on neurogenic inflammation [4]: none

O=C(O)c1ccccc1Nc1cccc(C(F)(F)F)c1 [flufenamic acid]
significant inhibitory effect on neurogenic inflammation [4]: none

COc1ccc2c(c1)c(CC(=O)O)c(C)n2C(=O)c1ccc(Cl)cc1 [indomethacin]
significant inhibitory effect on neurogenic inflammation [4]: none

O=C([O-])c1ccccc1O.[Na+] [sodium salicylate]
significant inhibitory effect on neurogenic inflammation [4]: none

D-Phe-Cys-Tyr-D-Trp-Gly-Cys-Thr-NH2 ([dF]CY[dW]GCT-NH2; cysteine pairing not given here) [VZ-934]
Decrease % (Evans blue extravasation vs control) [2]: 44.7% | Evans blue extravasation [2]: 93.7 µg/g | inhibition of mustard oil-induced neurogenic inflammation (in words) [2]: significantly inhibited

D-Phe-Cys-Tyr-D-Trp-Lys-Cys-Trp-NH2 ([dF]CY[dW]KCW-NH2; cysteine pairing not given here) [VZ-924]
Decrease % (Evans blue extravasation vs control) [2]: 55.62% | Evans blue extravasation [2]: 75.26 µg/g | inhibition of mustard oil-induced neurogenic inflammation (in words) [2]: significantly inhibited

D-Phe-Cys-Tyr-Gly-Lys-Cys-Thr-NH2 ([dF]CYGKCT-NH2; cysteine pairing not given here) [VZ-1021]
Decrease % (Evans blue extravasation vs control) [2]: 54.72% | Evans blue extravasation [2]: 76.72 µg/g | inhibition of mustard oil-induced neurogenic inflammation (in words) [2]: significantly inhibited

β-Asp(indolinyl)-Cys-Tyr-D-Trp-Lys-Cys-Thr-NH2 ({βAsp(indolinyl)}-CY[dW]KCT-NH2; cysteine pairing not given here) [VZ-927]
Decrease % (Evans blue extravasation vs control) [2]: 60.44% | Evans blue extravasation [2]: 67.07 µg/g | inhibition of mustard oil-induced neurogenic inflammation (in words) [2]: significantly inhibited
